Measurements published in US20160287571A1, “PHARMACEUTICAL COMPOSITIONS COMPRISING ANTIBACTERIAL AGENTS” (priority 2013, published 2016).
Where two headings read alike, the source gives them in different places.

Columns and labels:
Type in all cases: cell-based, Acinetobacter baumannii
[1] = tested on: A. baumannii NCTC 13303 (OXA 51, OXA 26); assay: MIC in Muller Hinton Agar (CLSI agar dilution); conditions: Acinetobacter baumannii
Experimental: (§1) The antibacterial activity of combinations according to the invention against resistant bacterial strains was investigated. Minimum Inhibitory Concentration (MIC) for the combinations according to invention was determined in Muller Hinton Agar (MHA) (BD, USA) according to Clinical and Laboratory Standards Institute (CLSI) recommendations (Clinical and Laboratory Standards Institute (CLSI), Performance Standards for Antimicrobial Susceptibility Testing, 20th Informational Supplement, M 100-S20, Volume 30, No. 1, 2010). Typically, the test strains were adjusted to deliver about 10^4 CFU per spot with a multipoint inoculator (Applied Quality Services, UK). The plates were pored with MHA containing doubling concentration range of the test combinations according to invention. The plates were inoculated and were incubated at 35° C. for 18 hours.

[2] = tested on: A. baumannii NCTC 13301 (OXA 51, OXA 23); assay: MIC in Muller Hinton Agar (CLSI agar dilution); conditions: Acinetobacter baumannii
Experimental: as §1

[3] = tested on: A. baumannii Q 1460648 (OXA 51, OXA 23); assay: MIC in Muller Hinton Agar (CLSI agar dilution); conditions: Acinetobacter baumannii
Experimental: as §1

[4] = tested on: A. baumannii NCTC 13305 (OXA 51, OXA 58); assay: MIC in Muller Hinton Agar (CLSI agar dilution); conditions: Acinetobacter baumannii
Experimental: as §1

[5] = tested on: A. baumannii NCTC 13304 (OXA 51, OXA 27); assay: MIC in Muller Hinton Agar (CLSI agar dilution); conditions: Acinetobacter baumannii
Experimental: as §1

[6] = tested on: A. baumannii J 144 (OXA 51, OXA 23); assay: MIC in Muller Hinton Agar (CLSI agar dilution); conditions: Acinetobacter baumannii
Experimental: as §1

[7] = tested on: A. baumannii NCTC 13302 (OXA 51, OXA 25); assay: MIC in Muller Hinton Agar (CLSI agar dilution); conditions: Acinetobacter baumannii
Experimental: as §1

[8] = tested on: A. baumannii G 156 (OXA 51, OXA 23); assay: MIC in Muller Hinton Agar (CLSI agar dilution); conditions: Acinetobacter baumannii
Experimental: as §1

[9] = tested on: A. baumannii M 126 (OXA 51, OXA 23); assay: MIC in Muller Hinton Agar (CLSI agar dilution); conditions: Acinetobacter baumannii
Experimental: as §1

[10] = tested on: A. baumannii NCTC 13304 (OXA 51, OXA 27); assay: Time kill study; conditions: for Bacterial count: agent alone at 8 mcg/ml, initial count 6.06 log CFU/ml
Experimental: (§2) The synergistic killing effect of the combinations according to invention was studied using time kill studies. In a typical time kill study, freshly grown cultures were diluted to the required cell density (initial starting inoculum) in Cation adjusted Muller Hinton broth medium (BD, USA). The antibacterial agents (either alone or in combination) at the required concentrations were added into the culture-containing medium. The samples were incubated under shaking condition (120 rpm) at 37° C. Enumeration of viable bacterial count was done every 2 hour by diluting in normal saline and plating on to the Tryptic Soya Agar plates (BD, USA). The plates were incubated for 24 hours to arrive at the viable bacterial count. The results are expressed in terms of Log CFU per […]. In general, the decrease of 1 Log CFU/ml, corresponds to 90% killing of bacteria. Similarly, 2 Log CFU/ml reductions indicates 99% killing of bacteria and 3 Log CFU/ml reductions is equal to 99.9% killing of bacteria.

[11] = tested on: A. baumannii NCTC 13302 (OXA 51, OXA 25); assay: Time kill study; conditions: for Bacterial count: agent alone at 8 mcg/ml, initial count 6.54 log CFU/ml
Experimental: as §2

SMILES: CC1(C)[C@H](C(=O)O)N2C(=O)C[C@H]2S1(=O)=O [Sulbactam, sulbactam]
- MIC ([1]; NCTC13303, read-out: MIC of Sulbactam, In presence of Compound of Formula (I) (4 mcg/ml), NCTC 13303): 8 mg/L
- MIC ([1]; NCTC13303, read-out: MIC of Sulbactam, In presence of Compound of Formula (I) (8 mcg/ml), NCTC 13303): 4 mg/L
- MIC ([1]; NCTC13303, agent alone, A. baumannii NCTC 13303): 16 mg/L
- MIC ([2]; NCTC13301, read-out: MIC of Sulbactam, In presence of Compound of Formula (I) (4 mcg/ml), NCTC 13301): 4 mg/L
- MIC ([2]; NCTC13301, read-out: MIC of Sulbactam, In presence of Compound of Formula (I) (8 mcg/ml), NCTC 13301): 2 mg/L
- MIC ([2]; NCTC13301, agent alone, A. baumannii NCTC 13301): 32 mg/L
- MIC ([3]; read-out: MIC of Sulbactam, In presence of Compound of Formula (I) (4 mcg/ml), Q 1460648): 4 mg/L
- MIC ([3]; read-out: MIC of Sulbactam, In presence of Compound of Formula (I) (8 mcg/ml), Q 1460648): 2 mg/L
- MIC ([3]; agent alone, A. baumannii Q 1460648): 16 mg/L
- MIC ([4]; NCTC13305, read-out: MIC of Sulbactam, In presence of Compound of Formula (I) (4 mcg/ml), NCTC 13305): 2 mg/L
- MIC ([4]; NCTC13305, read-out: MIC of Sulbactam, In presence of Compound of Formula (I) (8 mcg/ml), NCTC 13305): 1 mg/L
- MIC ([4]; NCTC13305, agent alone, A. baumannii NCTC 13305): 4 mg/L
- MIC ([5]; NCTC13304, read-out: MIC of Sulbactam, In presence of Compound of Formula (I) (4 mcg/ml), NCTC 13304): 2 mg/L
- MIC ([5]; NCTC13304, read-out: MIC of Sulbactam, In presence of Compound of Formula (I) (8 mcg/ml), NCTC 13304): 1 mg/L
- MIC ([5]; NCTC13304, agent alone, A. baumannii NCTC 13304): 8 mg/L
- MIC ([6]; read-out: MIC of Sulbactam, In presence of Compound of Formula (I) (4 mcg/ml), J 144): 2 mg/L
- MIC ([6]; read-out: MIC of Sulbactam, In presence of Compound of Formula (I) (8 mcg/ml), J 144): 1 mg/L
- MIC ([6]; agent alone, A. baumannii J 144): 16 mg/L
- MIC ([7]; NCTC13302, read-out: MIC of Sulbactam, In presence of Compound of Formula (I) (4 mcg/ml), NCTC 13302): 4 mg/L
- MIC ([7]; NCTC13302, read-out: MIC of Sulbactam, In presence of Compound of Formula (I) (8 mcg/ml), NCTC 13302): 2 mg/L
- MIC ([7]; NCTC13302, agent alone, A. baumannii NCTC 13302): 32 mg/L
- MIC ([8]; read-out: MIC of Sulbactam, In presence of Compound of Formula (I) (4 mcg/ml), G 156): 4 mg/L
- MIC ([8]; read-out: MIC of Sulbactam, In presence of Compound of Formula (I) (8 mcg/ml), G 156): 2 mg/L
- MIC ([8]; agent alone, A. baumannii G 156): 8 mg/L
- MIC ([9]; read-out: MIC of Sulbactam, In presence of Compound of Formula (I) (4 mcg/ml), M 126): 8 mg/L
- MIC ([9]; read-out: MIC of Sulbactam, In presence of Compound of Formula (I) (8 mcg/ml), M 126): 2 mg/L
- MIC ([9]; agent alone, A. baumannii M 126): 32 mg/L
- Bacterial count ([10]; 2 hours): 7.73 Log CFU/ml
- Bacterial count ([10]; 4 hours): 7.07 Log CFU/ml
- Bacterial count ([10]; 6 hours): 8.2 Log CFU/ml
- Effect on bacterial counts throughout the duration of the study (in words) ([10]; A. baumannii NCTC 13304, summary of Table 4): did not reduce the bacterial counts
- Bacterial count ([11]; 2 hours): 5.74 Log CFU/ml
- Bacterial count ([11]; 4 hours): 5.09 Log CFU/ml
- Bacterial count ([11]; 6 hours): 6.04 Log CFU/ml
- Bacterial count ([11]; 8 hours): 7.46 Log CFU/ml
- Effect on bacterial counts throughout the duration of the study (in words) ([11]; A. baumannii NCTC 13302, summary of Table 3): did not reduce the bacterial counts
